Results as given in patent US8507498B2, “4, 6-disubstituted aminopyrimidine derivatives as inhibitors of protein kinases” (Ingenium Pharmaceuticals GmbH, priority 2007, dated 2013).
Entries after “also recorded” stand apart in the source; their conditions may differ.

Columns and labels:
[1] = tested on: IL6 expression in LPS-induced THP-1 macrophages; assay: In vitro THP-1 assay, IL6 ELISA; assay type: cell-based, human; details: 0.5 to 5 μM, 60 min pre-incubation, vs DMSO
Experimental: (§1) THP-1 cells are grown in modified RPMI-1640 medium (ATCC, Cat. No. 30-2001) supplemented with 10% FCS and 1% Pen/Strep. For cytokine inhibition assays, cells are seeded at a density of 5×10^5 cells/ml into 6-well plates in standard growth medium supplemented with 100 ng/ml PMA (Sigma, P1585) to induce differentiation into macrophage-like cells. After 24 hours, the medium is replaced with standard growth medium (without PMA) and the cells are incubated for another 48 hours to complete differentiation. […] Cells are incubated for 60 min with compounds prior to stimulation with 100 ng/ml LPS (Sigma, L2630) for another 4-48 hours. Supernatants are collected and assayed immediately for cytokine expression, e.g. for TNFα, IL-6 and IL-1b using commercially available sandwich ELISA assays (eBioscience, Cat. No 88-7346, 88-7066, 88-7010) or kept frozen at […] until evaluation. Concentrations of TNFα, IL6 and IL1β within the cell culture supernatants are measured by using commercial ELISA Kits (eBioscience) according to the manufacturer's instructions. CDK-inhibitory compounds # 1, 2, 3, 5, 16, 18, 19 and 32 were administered to differentiated THP-1 cells in triplicates as described above (see section 2.). After 60 min of pre-incubation with test or reference compound (SB203580, a p38 inhibitor and BMS345541, an IKK-inhibitor) alone, cells were stimulated with LPS. After incubation for 4-48 h, supernatants were collected and ELISA based determinations of cytokine supernatant concentrations were performed as described in section 3, supra.

TNFα = assay: LPS in vivo assay, serum TNF alpha ELISA; details: LPS mice, 10 or 30 mg/kg single p.o. 30 min prior to LPS, blood 90 min after LPS, vs vehicle
Experimental: (§2) For the LPS induced model of septic shock, mice receive an intraperitoneal (i.p.) injection of 30 μg bacterial Lipopolysaccharide (LPS; L2630 SIGMA) in saline. Said LPS-mediated initiation of the inflammatory signalling cascade results in increasing blood serum concentrations of cytokines such as e.g. TNFα, IL-6 and IL1β. Blood can be taken from these animals at defined time points. Thereafter, serum will be separated and the samples can be stored at −80° C. until cytokine concentrations are measured using commercial ELISA assays. (AL Moreira et al., Braz J Med Biol Res 1997; 30:1199-1207).
(§3) Wildtype mice (strain C3HeB/FeJ) (age, sex and weight matched) were injected with 30 μg LPS (SIGMA) intraperitoneally. 90 minutes after LPS administration these animals were anaesthetized with 0.1 ml/10 g bodyweight Ketamine-Rompun (50/20 mg/ml) and blood for serum preparation was taken via cardiac puncture.
(§4) Pharmacological treatment groups (n=4) of LPS mice received per os (p.o.) injections of CDK-inhibiting compounds or the vehicle (negative control), respectively. In particular, compounds 1, 5, 10, and 84 were administered.
(§5) 10 or 30 mg/kg (compound per bodyweight) of a CDK inhibitor, dissolved in 20% DMSO, 5% Tween 80, 10% Tris 1M pH8, 20% PEG400, 45% PBS was administered as a single p.o. dosage 30 min prior to LPS stimulation. Vehicle control was administered in the same manner.
(§6) 90 minutes (min) after LPS stimulation, blood samples were taken from the mice. Previously, the 90 min time point had been identified as the peak of TNF alpha expression in this animal model by a time course experiment.
(§7) Blood samples (˜500 μl/animal) from the LPS animals were incubated on wet ice for 30 min after cardiac puncture. Afterwards the samples were centrifuged for 15 min at 13.000 rpm. Serum was separated from the clot and stored frozen at −80° C.
(§8) Serum concentrations of TNF alpha and IL6 within the samples were measured by using commercial ELISA Kits (Natutec) according to the manufacturers instructions.

IL6 = assay: LPS in vivo assay, serum IL6 ELISA; details: LPS mice, 10 or 30 mg/kg single p.o. 30 min prior to LPS, blood 90 min after LPS, vs vehicle
Experimental: as §2, §3, §4, §5, §6, §7, §8

[2] = tested on: TNFα expression in LPS-induced THP-1 macrophages; assay: In vitro THP-1 assay, TNFα ELISA; assay type: cell-based, human; details: 0.5 to 5 μM, 60 min pre-incubation, vs DMSO
Experimental: as §1

SMILES | melting point | inhibition of IL6 expression in the supernatant [1] | inhibition of TNFα expression in the supernatant [2] | further results
CCCS(=O)(=O)Nc1cc(Nc2cc(-c3cccc([N+](=O)[O-])c3)ncn2)ccc1C | 202 to 203.5 °C |  |  | 
COc1cc(F)ccc1-c1cc(Nc2cccc(CS(N)(=O)=O)c2)ncn1 [Compound 3, {3-[6-(4-Fluoro-2-methoxy-phenyl)-pyrimidin-4-ylamino]-phenyl}-methanesulfonamide] |  | significant inhibitory effect; also recorded: significant inhibition | significant inhibitory effect; also recorded: significant inhibition | 
CC(C)Oc1ccccc1-c1cc(Nc2cccc(CS(N)(=O)=O)c2)ncn1 [Compound 5, {3-[6-(2-Isopropoxy-phenyl)-pyrimidin-4-ylamino]-phenyl}-methanesulfonamide] |  | significant inhibition |  | TNFα protein concentration in the blood serum (TNFα): significant repressive effect; IL6 protein concentration in the blood serum (IL6): significant repressive effect
COc1ccccc1-c1cc(Nc2cccc(CS(=O)(=O)NC(C)C)c2)ncn1 [Compound 10, N-Isopropyl-C-{3-[6-(2-methoxy-phenyl)-pyrimidin-4-ylamino]-phenyl}-methanesulfonamide] |  |  |  | TNFα protein concentration in the blood serum (TNFα): significant repressive effect; IL6 protein concentration in the blood serum (IL6): significant repressive effect
COc1ccccc1-c1cc(Nc2cccc(CS(=O)(=O)NC3CCCC3)c2)ncn1 [Compound 16, N-Cyclopentyl-C-{3-[6-(2-methoxy-phenyl)-pyrimidin-4-ylamino]-phenyl}-methanesulfonamide] |  | significant inhibitory effect; also recorded: significant inhibition | significant inhibitory effect; also recorded: significant inhibition | 
CCOc1ccccc1-c1cc(Nc2cccc(CS(=O)(=O)NC3CC3)c2)ncn1 [Compound 18, N-Cyclopropyl-C-{3-[6-(2-ethoxy-phenyl)-pyrimidin-4-ylamino]-phenyl}-methanesulfonamide] |  | significant inhibitory effect; also recorded: significant inhibition | significant inhibitory effect; also recorded: significant inhibition | 
CCOc1ccccc1-c1cc(Nc2cccc(CS(=O)(=O)NC(C)(C)C)c2)ncn1 [Compound 19, N-tert-Butyl-C-{3-[6-(2-ethoxy-phenyl)-pyrimidin-4-ylamino]-phenyl}-methanesulfonamide] |  | significant inhibitory effect; also recorded: significant inhibition | significant inhibitory effect; also recorded: significant inhibition | 
NS(=O)(=O)Cc1cccc(Nc2cc(-c3ccccc3OCc3ccccc3)ncn2)c1 [Compound 32, {3-[6-(2-Benzyloxy-phenyl)-pyrimidin-4-ylamino]-phenyl}-methanesulfonamide] |  | significant inhibitory effect; also recorded: significant inhibition | significant inhibitory effect; also recorded: significant inhibition | 
NS(=O)(=O)Cc1cccc(Nc2cc(-c3cccc(C(F)(F)F)c3)ncn2)c1 [Compound 63, {3-[6-(3-Trifluoromethyl-phenyl)-pyrimidin-4-ylamino]-phenyl}-methanesulfonamide] | 221.5 to 223 °C |  |  | 
COCCOc1ccccc1-c1cc(Nc2cccc(CS(N)(=O)=O)c2)nc(C)n1 [Compound 83, (3-{6-[2-(2-methoxy-ethoxy)-phenyl]-2-methyl-pyrimidin-4-ylamino}-phenyl)-methanesulfonamide] | 209 to 211.1 °C |  |  | 
COc1ccccc1-c1cc(Nc2cccc(CS(=O)(=O)CCCN(C)C)c2)ncn1 [Compound 84, [3-(3-Dimethylamino-propane-1-sulfonylmethyl)-phenyl]-[6-(2-methoxy-phenyl)-pyrimidin-4-yl]-amine] |  |  |  | TNFα protein concentration in the blood serum (TNFα): significant repressive effect; IL6 protein concentration in the blood serum (IL6): significant repressive effect
CS(=O)(=O)c1cccc(Nc2cc(-c3ccccc3O)ncn2)c1 [Reference Example 49, 2-[6-(3-methanesulfonyl-phenylamino)-pyrimidin-4-yl]-phenol] | 214 to 216.1 °C |  |  | 
CS(=O)(=O)c1cccc(Nc2cc(-c3ccccc3OCc3ccccc3)ncn2)c1 [Reference Example 51, [6-(2-benzyloxy-phenyl)-pyrimidin-4-yl]-(3-methanesulfonyl-phenyl)-amine] | 199 to 205 °C |  |  | 

Further lines, with some results ahead:

melting point | SMILES | inhibition of IL6 expression in the supernatant [1] | inhibition of TNFα expression in the supernatant [2] | further results
236.3 to 238.6 °C | CCOc1ccccc1-c1cc(Nc2cccc(CS(N)(=O)=O)c2)ncn1 [Compound 1, {3-[6-(2-Ethoxy-phenyl)-pyrimidin-4-ylamino]-phenyl}-methanesulfonamide] | significant inhibitory effect; also recorded: significant inhibition | significant inhibitory effect; also recorded: significant inhibition | TNFα protein concentration in the blood serum (TNFα): significant repressive effect; IL6 protein concentration in the blood serum (IL6): significant repressive effect
149.2 to 150.8 °C | COCCCNS(=O)(=O)Cc1cccc(Nc2cc(-c3ccccc3OC)ncn2)c1 [Compound 33, C-{3-[6-(2-Methoxy-phenyl)-pyrimidin-4-ylamino]-phenyl}-N-(3-methoxy-propyl)-methanesulfonamide] |  |  | 
141 to 142.9 °C | COCCOc1ccccc1-c1cc(Nc2cccc(CS(C)(=O)=O)c2)ncn1 [Compound 57, (3-Methanesulfonylmethyl-phenyl)-{6-[2-(2-methoxy-ethoxy)-phenyl]-pyrimidin-4-yl}-amine] |  |  | 
160 to 162.6 °C | CS(=O)(=O)Cc1cccc(Nc2cc(-c3ccccc3OCC3CCCO3)ncn2)c1 (stereo not drawn) [Compound 64, (3-methanesulfonylmethyl-phenyl)-{6-[2-(tetrahydro-furan-2-ylmethoxy)-phenyl]-pyrimidin-4-yl}-amine] |  |  | 
211.7 to 213.1 °C | COc1ccccc1-c1cc(Nc2cccc(CS(N)(=O)=O)c2)nc(N)n1 [Compound 66, {3-[2-amino-6-(2-methoxy-phenyl)-pyrimidin-4-ylamino]-phenyl}-methanesulfonamide] |  |  | 
171 to 172 °C | CNS(=O)(=O)Cc1cccc(Nc2cc(-c3ccccc3COC)ncn2)c1 [Compound 80, C-{3-[6-(2-methoxymethyl-phenyl)-pyrimidin-4-ylamino]-phenyl}-N-methyl-methanesulfonamide] |  |  | 
168.4 to 169.4 °C | NS(=O)(=O)Cc1cccc(Nc2cc(-c3ccccc3OCC3CCCO3)ncn2)c1 (stereo not drawn) [Compound 82, (3-{6-[2-(tetrahydro-furan-2-ylmethoxy)-phenyl]-pyrimidin-4-ylamino}-phenyl)-methanesulfonamide] |  |  | 
